Values of other authors as cited in US8871800B2, “Statin and omega-3 fatty acids for reduction of Apo-B levels” (GlaxoSmithKline, LLC, priority 2006, dated 2014).

How the values were obtained:
[1] = test system: patients with hyperlipemia; conditions: atorvastatin monotherapy 10 mg/day, 5 weeks; compared to baseline
[2] = test system: obese, insulin-resistant men with dyslipidemia; conditions: atorvastatin monotherapy 40 mg/day, 6 weeks
[3] = test system: patients with hypercholesterolemia; conditions: lovastatin monotherapy 40 mg/day, 6 weeks
[4] = test system: patients with familial hypercholesterolemia; conditions: monotherapy (6 g/day Omacor or 40 mg/day lovastatin), 6 weeks

CC(C)c1c(C(=O)Nc2ccccc2)c(-c2ccccc2)c(-c2ccc(F)cc2)n1CC[C@@H](O)C[C@@H](O)CC(=O)O [atorvastatin]
Apo-B levels [1]: significantly decreased | HDL-C levels [1]: significantly increased | LDL-C levels [1]: significantly decreased | triglyceride levels [1]: significantly decreased | Apo-B levels [2]: significantly decreased

CC[C@H](C)C(=O)O[C@H]1C[C@@H](C)C=C2C=C[C@H](C)[C@H](CC[C@@H]3C[C@@H](O)CC(=O)O3)[C@H]21 [lovastatin]
Apo-B levels [3]: significantly reduced | HDL-C levels [3]: significant increases | LDL-C levels [3]: significant decreases | triglyceride levels [3]: significant decreases | Apo-B levels [4]: significantly reduced
